Laboratory results from ChEMBL document CHEMBL4043136, “Chiral-pool synthesis of 1,2,4-trisubstituted 1,4-diazepanes as novel σ1 receptor ligands” (Bioorg Med Chem, 2017).
pIC50, pKi: −log10 of the molar value. The source made the active and inactive calls. The rule behind the calls is not given here.

Assays:
[1] = molecular target: T1, Sigma intracellular receptor 2 (Rattus norvegicus, UniProt Q5U3Y7); test: Displacement of [3H]-DTG from sigma2 receptor in rat liver membranes in presence of (+)-pentazocine; assay type: cell membranes, Membrane
T1 sequence (Q5U3Y7 whole entry): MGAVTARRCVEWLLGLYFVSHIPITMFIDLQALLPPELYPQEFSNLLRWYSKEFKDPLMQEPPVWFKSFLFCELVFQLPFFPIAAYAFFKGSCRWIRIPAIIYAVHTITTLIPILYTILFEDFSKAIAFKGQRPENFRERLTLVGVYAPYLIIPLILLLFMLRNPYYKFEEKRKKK

[2] = molecular target: Sigma non-opioid intracellular receptor 1 (Cavia porcellus, UniProt Q60492); test: Displacement of [3H]-pentazocine from sigma1 receptor in guinea pig brain membranes after 120 mins by liquid scintillation counting; assay type: cell membranes, Membrane
[3] = molecular target: T1, Sigma intracellular receptor 2; test: Displacement of [3H]-DTG from sigma2 receptor in rat liver membranes after 120 mins by liquid scintillation counting; assay type: cell membranes, Membrane
[4] = Displacement of [3H]-(+)-MK 801 from PCP binding site of NMDA receptor in pig brain cortex membranes after 120 mins by liquid scintillation spectrometry; assay type: cell membranes, Sus scrofa
[5] = molecular target: C-8 sterol isomerase ERG2 (Saccharomyces cerevisiae S288c) (UniProt P32352); test: Inhibition of yeast sterol-delta8/7-isomerase assessed as accumulation of cholesta-8-en-3beta-ol at 1 uM
[6] = molecular target: C-8 sterol isomerase ERG2 (Saccharomyces cerevisiae S288c) (UniProt P32352); test: Inhibition of yeast sterol-delta8/7-isomerase assessed as accumulation of cholesta-8-en-3beta-ol at 50 uM
[7] = molecular target: C-8 sterol isomerase ERG2 (Saccharomyces cerevisiae S288c) (UniProt P32352); test: Inhibition of yeast sterol-delta8/7-isomerase assessed as accumulation of cholesta-8,14-dien-3beta-ol at 1 uM
[8] = molecular target: C-8 sterol isomerase ERG2 (Saccharomyces cerevisiae S288c) (UniProt P32352); test: Inhibition of yeast sterol-delta8/7-isomerase assessed as accumulation of cholesta-8,14-dien-3beta-ol at 50 uM
[9] = molecular target: C-8 sterol isomerase ERG2 (Saccharomyces cerevisiae S288c) (UniProt P32352); test: Inhibition of yeast sterol-delta8/7-isomerase assessed as accumulation of cholesta-7-en-3beta-ol at 1 uM
[10] = molecular target: C-8 sterol isomerase ERG2 (Saccharomyces cerevisiae S288c) (UniProt P32352); test: Inhibition of yeast sterol-delta8/7-isomerase assessed as accumulation of cholesta-7-en-3beta-ol at 50 uM
[11] = molecular target: C-8 sterol isomerase ERG2 (Saccharomyces cerevisiae S288c) (UniProt P32352); test: Inhibition of yeast sterol-delta8/7-isomerase assessed as accumulation of cholesta-5,7-dien-3beta-ol at 1 uM
[12] = molecular target: C-8 sterol isomerase ERG2 (Saccharomyces cerevisiae S288c) (UniProt P32352); test: Inhibition of yeast sterol-delta8/7-isomerase assessed as accumulation of cholesta-5,7-dien-3beta-ol at 50 uM
[13] = molecular target: C-8 sterol isomerase ERG2 (Saccharomyces cerevisiae S288c) (UniProt P32352); test: Inhibition of yeast sterol-delta8/7-isomerase at 1 uM
[14] = system: HL-60; test: Inhibition of cholesteriol biosynthesis in human HL60 cells assessed as incorporation of 2-13C-acetate; assay type: functional, cell-based
[15] = molecular target: C-8 sterol isomerase ERG2 (Saccharomyces cerevisiae S288c) (UniProt P32352); test: Inhibition of yeast sterol-delta8/7-isomerase at 50 uM
[16] = species: Sus scrofa; test: Displacement of [3H]-(+)-MK 801 from PCP binding site of NMDA receptor in pig brain cortex membranes at 1 uM after 120 mins by liquid scintillation spectrometry; assay type: cell membranes

Sigma non-opioid intracellular receptor 1, sequence (Q60492 whole entry): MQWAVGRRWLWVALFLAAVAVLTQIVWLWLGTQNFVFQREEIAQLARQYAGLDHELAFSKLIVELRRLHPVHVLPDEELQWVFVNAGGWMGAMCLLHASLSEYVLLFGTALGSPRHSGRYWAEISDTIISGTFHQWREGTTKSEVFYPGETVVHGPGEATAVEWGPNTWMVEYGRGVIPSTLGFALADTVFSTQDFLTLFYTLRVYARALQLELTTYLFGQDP
C-8 sterol isomerase ERG2 (Saccharomyces cerevisiae S288c), sequence (P32352 whole entry, looked up): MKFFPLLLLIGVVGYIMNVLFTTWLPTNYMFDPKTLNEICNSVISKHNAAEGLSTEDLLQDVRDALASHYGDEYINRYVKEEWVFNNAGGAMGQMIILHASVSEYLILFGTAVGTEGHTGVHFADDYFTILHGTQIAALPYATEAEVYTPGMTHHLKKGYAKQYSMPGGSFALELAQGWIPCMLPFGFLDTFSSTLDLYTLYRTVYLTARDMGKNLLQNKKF

Row | SMILES | pKi [1] | pKi [2] | pKi [3] | pIC50 [4] | inhibition [5] | inhibition [6] | inhibition [7] | inhibition [8] | inhibition [9] | inhibition [10] | inhibition [11] | inhibition [12] | inhibition [13] | pIC50 [14] | inhibition [15] | inhibition [16] [%]
1 | COc1cccc2c1CCCC2CCCN1CCN(C2CCCCC2)CC1 (stereo not given) | 9.47 | – | – | – | – | – | – | – | – | – | – | – | – | – | – | –
2 | CC(C)[C@H]1CN(CC2CCCCC2)CCCN1Cc1ccccc1 | – | 8.22 | < 6.00 | < 6.00 | inactive | Active | Active | inactive | Active | Active | Active | Active | – | – | – | –
3 | CCCCN1CCCN(Cc2ccccc2)[C@@H](Cc2ccccc2)C1 | – | 8.43 | 6.62 | < 6.00 | inactive | inactive | Active | Active | Active | Active | Active | Active | Active | 6.13 | – | –
4 | COc1ccc(CN2CCCN(Cc3ccccc3)[C@H](Cc3ccccc3)C2)cc1 | – | 7.38 | 6.37 | < 6.00 | Active | inactive | Active | Active | Active | Active | Active | Active | – | – | Active | –
5 | CCCCN1CCCN(Cc2ccccc2)[C@H](C)C1 | – | 9.43 | 6.43 | < 6.00 | Active | inactive | Active | inactive | Active | Active | inactive | Active | – | – | – | –
6 | c1ccc(C[C@H]2CNCCCN2Cc2ccccc2)cc1 | – | < 6.00 | < 5.00 | < 6.00 | Active | inactive | Active | Active | Active | Active | Active | inactive | – | – | – | –
7 | c1ccc(CCCCN2CCCN(Cc3ccccc3)[C@H](Cc3ccccc3)C2)cc1 | – | 7.55 | 6.37 | < 6.00 | inactive | Active | inactive | Active | Active | Active | Active | Active | – | – | – | –
8 | COc1ccc(CN2CCCN(Cc3ccccc3)[C@@H](C(C)C)C2)cc1 | – | 7.70 | < 6.00 | < 6.00 | Active | Active | Active | inactive | Active | Active | Active | Active | – | – | – | –
9 | CCCCN1CCCN(Cc2ccccc2)[C@H](Cc2ccccc2)C1 | – | 8.41 | 6.77 | < 6.00 | Active | inactive | Active | Active | Active | Active | Active | Active | – | – | Active | –
10 | OC(CN1CCCN(Cc2ccccc2)[C@H](Cc2ccccc2)C1)c1ccccc1 (stereo not given in full) | – | 7.29 | < 6.00 | 6.00 | – | – | – | – | – | – | – | – | – | – | – | 50
11 | c1ccc(C[C@@H]2CN(Cc3ccccc3)CCCN2Cc2ccccc2)cc1 | – | 7.10 | 6.29 | < 6.00 | Active | Active | Active | Active | Active | Active | Active | Active | – | – | Active | –
12 | CN1CCCN(Cc2ccccc2)[C@H](Cc2ccccc2)C1 | – | 6.55 | < 6.00 | < 6.00 | inactive | Active | Active | Active | Active | Active | Active | Active | – | – | – | –
13 | OCC(c1ccccc1)N1CCCN(Cc2ccccc2)[C@H](Cc2ccccc2)C1 (stereo not given in full) | – | 7.57 | < 6.00 | 6.00 | – | – | – | – | – | – | – | – | – | – | – | 50
14 | CN1CCCN(Cc2ccccc2)[C@@H](Cc2ccccc2)C1 | – | 6.35 | < 6.00 | < 6.00 | inactive | inactive | Active | inactive | Active | Active | Active | Active | – | – | – | –
15 | C[C@H]1CN(CC2CCCCC2)CCCN1Cc1ccccc1 | – | 9.66 | 8.13 | < 6.00 | inactive | inactive | inactive | inactive | Active | Active | Active | Active | – | – | – | –
16 | C[C@@H]1CN(CC2CCCCC2)CCCN1Cc1ccccc1 | – | 9.42 | 8.15 | < 6.00 | inactive | inactive | inactive | inactive | Active | Active | Active | Active | – | – | – | –
17 | c1ccc2c(c1)CCCC2CCCCN1CCN(C2CCCCC2)CC1 (stereo not given) | 7.84 | – | – | – | – | – | – | – | – | – | – | – | – | – | – | –
18 | c1ccc(C[C@H]2CN(Cc3ccccc3)CCCN2Cc2ccccc2)cc1 | – | 7.15 | < 6.00 | < 6.00 | Active | inactive | Active | Active | Active | Active | Active | Active | – | – | Active | –
19 | COc1ccc(CN2CCCN(Cc3ccccc3)[C@@H](Cc3ccccc3)C2)cc1 | – | 7.54 | < 6.00 | < 6.00 | Active | inactive | Active | Active | inactive | Active | Active | Active | – | – | – | –
20 | c1ccc(C[C@@H]2CNCCCN2Cc2ccccc2)cc1 | – | < 6.00 | < 6.00 | < 6.00 | Active | inactive | Active | Active | Active | Active | Active | Active | – | – | – | –
21 | C[C@@H]1CN(CCCCc2ccccc2)CCCN1Cc1ccccc1 | – | 9.08 | 7.15 | < 6.00 | Active | inactive | inactive | inactive | Active | Active | Active | Active | – | – | – | –
22 | c1ccc(CCN2CCCN(Cc3ccccc3)[C@@H](Cc3ccccc3)C2)cc1 | – | 7.40 | 6.37 | < 6.00 | Active | Active | Active | Active | Active | Active | Active | Active | – | – | Active | –
